From patent US20210198277A1, “AMINE-SUBSTITUTED ARYL OR HETEROARYL COMPOUNDS” (Epizyme, Inc., priority 2016, published 2021)

biological target: T1, EHMT2 (Homo sapiens, UniProt Q96KQ7); test: MDA-MB-231 H3K9me2 in-cell Western assay (EHMT2 ICW); type: cell-based; conditions: Table VI; read-out: EHMT2 ICW IC50
T1 construct: host or cells: MDA-MB-231
T1 sequence (Q96KQ7 1-1210): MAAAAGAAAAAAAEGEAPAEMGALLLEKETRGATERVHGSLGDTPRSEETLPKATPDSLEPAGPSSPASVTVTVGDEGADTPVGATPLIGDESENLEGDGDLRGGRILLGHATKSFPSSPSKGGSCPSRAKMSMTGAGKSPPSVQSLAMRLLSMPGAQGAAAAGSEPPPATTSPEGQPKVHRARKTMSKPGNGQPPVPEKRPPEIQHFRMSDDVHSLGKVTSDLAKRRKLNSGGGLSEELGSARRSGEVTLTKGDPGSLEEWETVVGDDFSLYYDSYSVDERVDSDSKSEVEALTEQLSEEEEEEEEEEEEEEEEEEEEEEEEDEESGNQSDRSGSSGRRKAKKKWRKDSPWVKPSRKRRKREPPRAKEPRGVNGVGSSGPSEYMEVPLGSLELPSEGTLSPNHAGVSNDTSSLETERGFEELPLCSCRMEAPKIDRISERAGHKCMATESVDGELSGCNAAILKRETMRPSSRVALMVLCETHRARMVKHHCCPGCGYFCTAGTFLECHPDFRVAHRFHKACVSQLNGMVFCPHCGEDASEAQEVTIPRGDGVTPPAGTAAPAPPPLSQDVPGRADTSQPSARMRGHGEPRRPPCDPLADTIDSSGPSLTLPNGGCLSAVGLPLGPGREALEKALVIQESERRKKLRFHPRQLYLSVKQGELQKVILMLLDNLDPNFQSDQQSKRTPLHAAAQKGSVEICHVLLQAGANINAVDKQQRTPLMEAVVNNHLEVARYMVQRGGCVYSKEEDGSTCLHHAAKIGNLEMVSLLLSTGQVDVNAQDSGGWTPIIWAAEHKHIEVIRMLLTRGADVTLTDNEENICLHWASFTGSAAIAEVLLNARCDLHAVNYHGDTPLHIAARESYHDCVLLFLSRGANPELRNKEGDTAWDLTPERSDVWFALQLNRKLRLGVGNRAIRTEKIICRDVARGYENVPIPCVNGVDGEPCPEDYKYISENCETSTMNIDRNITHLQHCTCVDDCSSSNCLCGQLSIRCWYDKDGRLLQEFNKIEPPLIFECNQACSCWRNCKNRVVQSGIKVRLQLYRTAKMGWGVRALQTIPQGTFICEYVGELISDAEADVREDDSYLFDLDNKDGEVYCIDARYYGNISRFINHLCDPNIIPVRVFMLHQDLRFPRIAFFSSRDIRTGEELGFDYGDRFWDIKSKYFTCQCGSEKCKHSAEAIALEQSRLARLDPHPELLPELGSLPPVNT
Method in brief: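 IC50 values came from a variable-slope four-parameter fit on triplicate wells, using % inhibition from the 800/700 nm infrared signal ratio (anti-H3K9me2 versus DRAQ5 DNA stain). Before fixation and immunostaining, MDA-MB-231 cells, 3,000 per well, were exposed to compound for 48 h at 37 °C.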

`COc1cc(NC2CCNCC2)ncc1OCC1CCN(C)C1` (centres unmarked) [Compound 604] and `COc1cc(NC2CCNCC2)ncc1OCC1CCNC1` (centres unmarked) [Compound 629] cannot be ordered by IC50: greater than 10 µM for the first, greater than 10 µM for the second.

`COc1nc(NC2CCNCC2)ncc1OCC1CCN(C)C1` (centres unmarked) [Compound 605] and `CCc1nc(NC2CCNCC2)ncc1OCC1CCN(C)C1` (centres unmarked) [Compound 630] cannot be ordered by IC50: greater than 10 µM for the first, greater than 10 µM for the second.

`CCN1CC(COc2cc(Nc3nc(C)cc4[nH]ncc34)ncc2OC)C1` [Compound 607] and `CCN1CC(COc2cc3nc(C)cc(C4CCN(C)CC4)c3cc2OC)C1` [Compound 660] fall in the same range of IC50: 1 to 10 µM for the first, 1 to 10 µM for the second.

First: CNc1cc(C)nc(Nc2cc(OCCCN3CCCC3)n3cnnc3c2)n1 [Compound 628]
Second: CNc1cc(C)nc(Nc2ccc(OC)c(CNCCN3CCCC3)c2)n1 [Compound 644, 2-N-[4-methoxy-3-([[2-(pyrrolidin-1-yl)ethyl]amino]methyl)phenyl]-4-N,6-dimethylpyrimidine-2,4-diamine]
The IC50 of the first is higher: greater than 10 µM for the first, 0.1 to 1 µM for the second. The second is the more potent here.

`CCc1nc(NC2CCNCC2)ncc1OCC1CN(C(C)C)C1` [Compound 631] and `CC(C)N1CC(COc2cnc(NC3CCNCC3)nc2)C1` [Compound 636] cannot be ordered by IC50: greater than 10 µM for the first, greater than 10 µM for the second.

`CN1CCC(Nc2ncc(OCC3CCN(C)C3)cn2)CC1` (centres unmarked) [Compound 632] and `CN1CCC(COc2cnc(N(C)C3CCNCC3)nc2)C1` (centres unmarked) [Compound 633] cannot be ordered by IC50: greater than 10 µM for the first, greater than 10 µM for the second.

`COc1cc(N(C)C2CCNCC2)ncc1OCC1CCN(C)C1` (centres unmarked) [Compound 634] and `CC(C)N1CC[C@@H](COc2cnc(N(C)C3CCNCC3)nc2)C1` [Compound 637] cannot be ordered by IC50: greater than 10 µM for the first, greater than 10 µM for the second.

First: COc1cc(N(C)C2CCNCC2)ncc1OCC1CCN(C)C1 (centres unmarked) [Compound 635]
Second: CCN1CC[C@@H](COc2cc3nc(C)cc(C4CCN(C)CC4)c3cc2OC)C1 [Compound 662]
The IC50 of the first is higher: greater than 10 µM for the first, 0.1 to 1 µM for the second. The second is the more potent here.

`COc1cnc(Nc2cccn3cncc23)cc1OCCCN1CCCC1` [Compound 638] and `COc1cc(Nc2ccc3[nH]ncc3c2)ncc1OCCCN1CCCC1` [Compound 643] cannot be ordered by IC50: greater than 10 µM for the first, greater than 10 µM for the second.

`COc1cnc(NC(=O)/C=C/CN(C)C)cc1OCCCN1CCCC1` [Compound 640] and `COc1cnc(Nc2ccc3[nH]nnc3c2)cc1OCCCN1CCCC1` [Compound 686] cannot be ordered by IC50: greater than 10 µM for the first, greater than 10 µM for the second.

First: CNc1cc(C)nc(Nc2cnc(OC)c(OC[C@@H]3CCNC3)c2)n1 [Compound 641]
Second: CNc1cc(C)nc(Nc2cnc(OC)c(O)c2)n1 [Compound 676]
The IC50 of the first is lower: 0.1 to 1 µM for the first, greater than 10 µM for the second.

Compared with `CNc1cc(C)nc(Nc2ccc(OC)c(CN(C)CCN3CCCC3)c2)n1` [Compound 645], `CNCCN(C)Cc1cc(Nc2nc(C)cc(NC)n2)ccc1OC` [Compound 680] is higher in IC50: 1 to 10 µM for the first, greater than 10 µM for the second.

First: CCN1CCC(NCc2cc(Nc3nc(C)cc(NC)n3)ccc2OC)C1 (centres unmarked) [Compound 646]
Second: CCN1CC(NCc2cc(Nc3nc(C)cc(NC)n3)ccc2OC)C1 [Compound 647]
The IC50 of the first is lower: 1 to 10 µM for the first, greater than 10 µM for the second. The first is the more potent here.

`COc1cc(Nc2ccc3[nH]ncc3n2)ncc1OCCCN1CCCC1` [Compound 648] and `COc1cnc(Nc2cccc3[nH]ncc23)nc1OCCCN1CCCC1` [Compound 655] cannot be ordered by IC50: greater than 10 µM for the first, greater than 10 µM for the second.

First: CCN1CC([C@H](C)Oc2cc(Nc3nc(C)cc(NC)n3)ccc2OC)C1 [Compound 649]
Second: CCN1CC([C@@H](C)Oc2cc(Nc3nc(C)cc(NC)n3)ccc2OC)C1 [Compound 687]
The IC50 of the first is lower: 0.1 to 1 µM for the first, 1 to 10 µM for the second. The first is the more potent here.

`CCN1CC(N(C)Cc2cc(Nc3nc(C)cc(NC)n3)ccc2OC)C1` [Compound 650] and `CCN1CCC(N(C)Cc2cc(Nc3nc(C)cc(NC)n3)ccc2OC)C1` (centres unmarked) [Compound 651] cannot be ordered by IC50: greater than 10 µM for the first, greater than 10 µM for the second.

Compared with `COc1cc2c(C3CCN(C)CC3)c(F)c(C)nc2cc1OCCCN1CCCC1` [Compound 652], `COc1cc2c(C3CCN(C)CC3)nc(C)nc2cc1OCCCN1CCCC1` [Compound 658] is higher in IC50: 1 to 10 µM for the first, greater than 10 µM for the second. The first is the more potent here.

`COc1cnc(Nc2cccc3nccn23)nc1OCCCN1CCCC1` [Compound 654] and `COc1cnc(Nc2cccc3nncn23)nc1OCCCN1CCCC1` [Compound 656] cannot be ordered by IC50: greater than 10 µM for the first, greater than 10 µM for the second.

`COc1cc2c(C3CCN(C(C)C)CC3)nc(C)nc2cc1OCCCN1CCCC1` [Compound 659] and `COc1cc2c(C3CCN(C)C3)nc(C)nc2cc1OCCCN1CCCC1` (centres unmarked) [Compound 745] cannot be ordered by IC50: greater than 10 µM for the first, greater than 10 µM for the second.

First: CCN1CC(COc2cc3nc(C)cc(C4CCN(C(C)C)CC4)c3cc2OC)C1 [Compound 661]
Second: CCN1CC[C@@H](COc2cc3nc(C)cc(C4CCN(C(C)C)CC4)c3cc2OC)C1 [Compound 663]
The IC50 of the first is higher: 1 to 10 µM for the first, 0.1 to 1 µM for the second. The second is the more potent here.

`CCN1CC(COc2cc3nc(C)nc(C4CCN(C)CC4)c3cc2OC)C1` [Compound 664] and `CCN1CC[C@@H](COc2cc3nc(C)nc(C4CCN(C)CC4)c3cc2OC)C1` [Compound 673] cannot be ordered by IC50: greater than 10 µM for the first, greater than 10 µM for the second.

`CCN1CC(COc2cc3nc(C)nc(C4CCN(C(C)C)CC4)c3cc2OC)C1` [Compound 665] and `CCN1CC[C@@H](COc2cc3nc(C)nc(C4CCN(C(C)C)CC4)c3cc2OC)C1` [Compound 674] cannot be ordered by IC50: greater than 10 µM for the first, greater than 10 µM for the second.

`CCN1CC[C@@H](COc2cc(Nc3nc(C)cc(NCC4CCOCC4)n3)ccc2OC)C1` [Compound 667] and `CCc1cc(NC)nc(Nc2ccc(OC)c(OC[C@@H]3CCN(CC)C3)c2)n1` [Compound 671] fall in the same range of IC50: 0.1 to 1 µM for the first, 0.1 to 1 µM for the second.

First: COc1cc2c(C3CCOCC3)cc(C)nc2cc1OCCCN1CCCC1 [Compound 668]
Second: COc1cc2c(C3CCOCC3)cc(-c3cn[nH]c3)nc2cc1OCCCN1CCCC1 [Compound 679]
The IC50 of the first is lower: 0.1 to 1 µM for the first, 1 to 10 µM for the second.

First: COc1cc2c(C3CCN(C(C)C)CC3)cc(C)nc2nc1OCCCN1CCCC1 [Compound 670]
Second: COCCN1CCC(c2cc(C)nc3cc(OCCCN4CCCC4)c(OC)cc23)CC1 [Compound 682]
The IC50 of the first is higher: greater than 10 µM for the first, 0.1 to 1 µM for the second.

First: CCN1CC[C@@H](COc2cc(Nc3nc(NC)cc(C(C)C)n3)ccc2OC)C1 [Compound 672]
Second: CNc1ccnc(Nc2ccc(OC)c(CNC[C@@H]3CCCN3)c2)n1 [Compound 1019]
The IC50 of the first is lower: 0.1 to 1 µM for the first, greater than 10 µM for the second.

First: COc1cc2c(C3CCN(C)CC3)cc(-c3cn[nH]c3)nc2cc1OCCCN1CCCC1 [Compound 677]
Second: COc1cc2c(C3CCN(C)CC3)cc(-c3cc[nH]n3)nc2cc1OCCCN1CCCC1 [Compound 678]
The IC50 of the first is higher: greater than 10 µM for the first, 1 to 10 µM for the second.

`COc1cc2c(C3CCN(C)CC3)nc(-c3cn[nH]c3)nc2cc1OCCCN1CCCC1` [Compound 681] and `CNc1nc(C2CCN(CCOC)CC2)c2cc(OC)c(OCCCN3CCCC3)cc2n1` [Compound 740] fall in the same range of IC50: 1 to 10 µM for the first, 1 to 10 µM for the second.

Compared with `CNc1cc(C)c2cc(OC)c(OCCCN3CCCC3)cc2n1` [Compound 736], `CNc1nc(C)c2cc(OC)c(OCCCN3CCCC3)cc2n1` [Compound 737] is higher in IC50: less than 0.1 µM for the first, greater than 10 µM for the second. The first is the more potent here.

First: COc1cc2c(C)cc(N3CCNCC3)nc2cc1OCCCN1CCCC1 [Compound 738]
Second: COc1cc2c(C)nc(N3CCNCC3)nc2cc1OCCCN1CCCC1 [Compound 739]
The IC50 of the first is lower: 1 to 10 µM for the first, greater than 10 µM for the second. The first is the more potent here.

`COc1cc2c(C3CCN(C)CC3)cc(C)nc2cc1OCCCN1CC[C@H](F)C1` [Compound 741] and `COc1cc2c(C3CCN(C)CC3)cc(C)nc2cc1OCCCN1CC[C@@H](F)C1` [Compound 742] fall in the same range of IC50: 1 to 10 µM for the first, 1 to 10 µM for the second.

`COc1cc2c(C3CCCN(C)C3)nc(C)nc2cc1OCCCN1CCCC1` (centres unmarked) [Compound 743] and `CNc1nc(C2CCCN(C)C2)c2cc(OC)c(OCCCN3CCCC3)cc2n1` (centres unmarked) [Compound 746] cannot be ordered by IC50: greater than 10 µM for the first, greater than 10 µM for the second.

`CNc1ccnc(Nc2ccc(OC)c(CNC[C@H]3CCCN3)c2)n1` [Compound 1020] showed an IC50 greater than 10 µM.
